Assay results as given in patent US20090054376A1, “BENZOFURAN DERIVATIVES WITH THERAPEUTIC ACTIVITIES” (Pharmos Corporation, priority 2005, published 2009).

How the values were obtained:
Human CB2 Receptor = biological target: T1, Human CB2 Receptor (Homo sapiens, UniProt P34972); test: [35S]GTPγS-binding assay, hCB2; type: biochemical; details: GTPγS; for agonistic activity toward cannabinoid receptors (in words): hCB1 and hCB2
T1 construct: host or cells: Sf9 or HEK-293 cells (membranes)
Method: (§1) Functional activity of compounds of the invention toward the cannabinoid receptors was determined by stimulation of [^35S]-GTPγS binding using membranes from HEK-293 cells expressing the hCB1 receptor and membranes expressing the hCB2 receptor derived from either Sf9 (PerkinElmer) or from HEK-293 cells. Activities were compared to that of the known cannabinoid full agonist CP55940 (Alexis). The purpose of this experiment is to determine the potency of the compounds of the invention as agonists or antagonists toward each of the receptor tested.
(§2) [^35S]-GTPγS binding reactions were performed at 30° C. in 96-well plates containing 5-10 μg membrane protein suspended in 0.1 ml binding buffer [20 mM HEPES-NaOH, pH 7.4, 5 mM MgCl2, 100 mM NaCl, 0.2% (w/v) bovine serum albumin] supplemented with 50 μM GDP and 0.06 nM-10 μM of the compound being tested. Binding was initiated by the addition of [^35S]GTPγS (0.3 nM final concentration). Incubations were performed for 90 minutes and were terminated by filtration on GF/C filter plates (PerkinEimer). Filters were washed ten times with ice-cold wash buffer (20 mM HEPES-NaOH, pH 7.4, 10 mM sodium pyrophosphate). Non-specific binding was measured in the presence of 15 μM GTPγS.
(§3) Assays were performed in duplicates. Data was analyzed by plotting on the X axis the log concentration against percent of specific [^35S]GTPγS binding out of basal [^35S]GTPγS binding on the Y axis, non-linear regression is then performed using GraphPad Prism, version 3.0 (GraphPad, San Diego, Calif.) to calculate the EC50 and Emax of the compound. The EC50 value represents the concentration at which there is 50% [^35S]GTPγS binding and the Emax value the upper plateau of the curve.

Human CB1 Receptor = biological target: T2, Human CB1 Receptor (Homo sapiens, UniProt P21554); test: [35S]GTPγS-binding assay, hCB1; type: biochemical; details: NB = no binding; for Emax: upper plateau of curve
T2 construct: expressed in transfected cells; host or cells: HEK-293 cells (membranes)
T2 sequence (P21554 whole entry): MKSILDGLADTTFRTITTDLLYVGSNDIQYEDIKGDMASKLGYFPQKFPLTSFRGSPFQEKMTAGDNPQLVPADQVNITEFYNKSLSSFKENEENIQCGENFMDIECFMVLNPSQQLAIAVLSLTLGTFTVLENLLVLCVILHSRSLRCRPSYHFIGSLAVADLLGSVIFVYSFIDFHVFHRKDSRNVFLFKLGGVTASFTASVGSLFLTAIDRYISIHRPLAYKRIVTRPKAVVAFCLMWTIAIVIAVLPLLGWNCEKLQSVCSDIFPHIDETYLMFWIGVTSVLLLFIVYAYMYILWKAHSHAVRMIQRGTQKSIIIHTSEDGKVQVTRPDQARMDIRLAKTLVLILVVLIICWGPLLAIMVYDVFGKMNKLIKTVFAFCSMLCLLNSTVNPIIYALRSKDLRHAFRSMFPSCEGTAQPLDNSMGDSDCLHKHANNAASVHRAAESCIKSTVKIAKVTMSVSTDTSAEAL
Method: as §1, §2, §3

[1] = tested on: visceral pain writhing responses; test: Visceral pain, acetic acid induced writhing responses; type: in vivo, Male ICR mice; details: Mus musculus, iv, single dose 2 mg/kg i.v., compared to untreated group; read-out: Percent Inhibition of Visceral Pain Writhing Responses
Method: Male ICR mice (average body weight 25 g, Harlan, Israel) were pretreated by i.v. injection at volume dose of 5 ml/kg of vehicle, control and test compounds at various doses. Other routes of administration were tested for selected compounds including i.m. or s.c. injections at volume dose of 2.5 ml/kg and p.o. gavage at volume dose of 5 ml/kg. Compounds were dissolved in CREMOPHOR®:Ethanol and diluted 1:20 in saline prior to injection or gavage. Compounds administered i.v. were injected fifteen minutes before pain induction, whereas compounds administered i.m., s.c. or p.o. were supplied thirty minutes before pain induction, unless otherwise indicated. Each treatment group, except for controls comprising at least 30 animals, was composed of at least 6 animals. Fifteen or thirty minutes after drug administration, depending on the route of administration, the mice were injected i.p. with 10 ml/kg of 0.6% acetic acid and the number of visceral pain related behaviors (writhing movements globally defined as WR, i.e. stretching, contractions of the abdomen accompanied by an elongation of the body and extension of the hind limbs) was counted over a period of 5 minutes, starting 5 minutes after the acetic acid administration. These visceral pain related behaviors were globally defined as writhing responses (WR). The results are expressed as mean number of writhing responses ±SEM. Data were analyzed using analysis of variance (ANOVA) followed by post-hoc Fisher test.

[2] = tested on: CB1 related cannabimimetic activity; test: Safety: body temperature, catalepsy, spontaneous locomotor activity, elevated plus maze, sensitivity to touch; type: in vivo, ICR male mice; details: for adverse cannabimimetic activities in any of the parameters monitored: 2 mg/kg i.v.
Method: In the present study, impact of compounds of the invention on the central nervous system was measured by monitoring the body temperature, catalepsy and spontaneous locomotor activity of rodents. These activities are part of the Tetrad assays which are indicative, if all parameters are affected, of CB1 mediated activity. In addition, lack of CNS psychomimetic effect was assessed in the elevated plus maze model. Finally, sensitivity to touch was determined in order to evaluate peripheral CB1 related activity.
ICR male mice (average body weight 25 g, Harlan, Israel) were administered the compounds of the invention i.v. at a dose of 2 mg/kg and at a volume dose of 5 ml/kg. The psychoactive cannabinoid HU-210 was used as positive control at the 100-fold lower dose of 0.02 mg/kg i.v. The following measurements were made starting 15 minutes after compound administration. All tests were completed for each animal within approximately 10 minutes. Rectal temperature was monitored using a thermistor probe (YSI model 400, USA). Spontaneous locomotion was assessed using the open field methodology. The number of squares crossed by the animals were recorded and analyzed during a period of three minutes. At the end of the open field test, the animals were tested for catalepsy symptoms. This was carried out by gently forcing the animal to stand on its hind paws when its front paws are holding on an elevated beam. The time for the animal to step down of the beam was measured in seconds. A normal animal withdraws the beam immediately whereas cataleptic animal tend to stay on the beam. The longer the animal stays leaning on the beam, the more cataleptic the animal is. The behavior of the animals was then assessed in the elevated plus maze. The elevated plus maze consists of two open arms and two arms that are enclosed by high walls (arms 30×10 cm, wall height 20 cm). The elevated plus maze is usually elevated 80 cm above the floor. The mouse is placed on the maze head facing an open arm, and the time spent in the different compartments of the maze (open arms, closed arms and central area) are measured for the next 5 minutes. Results are expressed as percent of the time spent in the open arms, normal animals preferring to stay in the closed arms of the maze. Finally, animals were gently touched by an observer blinded for the treatment group and their sensitivity scored according to the following scale: 0 not sensitive, 1 sensitive and 2 highly sensitive. Results are expressed as average±SEM. At the end of the study, the animals were euthanized.

[3] = tested on: carrageenan induced inflammatory pain and paw edema; test: Inflammatory pain and paw edema induced by carrageenan; type: in vivo, Male Sprague Dawley rats; details: Rattus norvegicus, ip; 10 mg/kg i.p., 3 hours after carrageenan, reduction in paw swelling; read-out: Percent Inhibition of Inflammatory Pain Responses, Edema
Method: Male Sprague Dawley rats (average body weight 200 g, Harlan, Israel) were transiently sedated by placement on dry ice for the duration of the injections. Rats were injected subcutaneously, in the subplantar region of one (right) paw with 0.1 ml of 2% w/v λ Carrageenan in sterile saline. […] Test compounds were, unless otherwise stated, administered i.p. at initial single dose of 3, 10 or 20 mg/kg, and volume dose of 5 ml/kg, immediately after the carrageenan injection. Selected compounds were also tested p.o. following oral gavage. Vehicle and celecoxib treated animals were used as controls. Each treatment group comprised at least seven animals.
Before induction of inflammatory pain and three hours after injection, the animals reactions to pain stimuli were tested in two systems. The first stimulus was thermal and assessed by the Plantar Test according to Hargreaves, using Ugo Basile Model 7370. The scale was set to an intensity of 50 arbitrary units. The latency time till the animal lift a paw as a reaction to the thermal stimulus was recorded for both the inflamed and non-inflamed hind paws. The second stimulus was mechanical (tactile) and assessed using a Dynamic Plantar Sesthesiomether (Ugo Basile Model 73400-002). […] Finally, the impact on paw edema was assessed. Paw thickness was measured using a dial thickness gauge (Spring-dial, constant low pressure gauge, Mitutoyo, TG/L-1, 0.01 mm) and paw volume was measured using a plethysmometer (model #7150, Ugo Basile, Italy). At the end of the study, animals were euthanized.
The results are measured as the differences between the two hind paws at time 0 and 3 hours both as ALT, for the latency time in the thermal part of the study, and as ΔForce, for the mechanical part of the study. The paw volume is expressed as percent from vehicle treated animals. Results are expressed as mean±SEM for each treatment group and the differences among those groups are analyzed by analysis of variance (ANOVA) followed by post-hoc Tukey's test.
Results refer to i.p. treatment with 10 mg/kg. Results marked with one asterisk refer to a dose 3 mg/kg, whereas two asterisks refer to 20 mg/kg. Celecoxib is included as reference.

[4] = Human CB2 Receptor, NB = no binding
[5] = Human CB2 Receptor, upper plateau of curve, NB = no binding

T1 sequence (P34972 whole entry): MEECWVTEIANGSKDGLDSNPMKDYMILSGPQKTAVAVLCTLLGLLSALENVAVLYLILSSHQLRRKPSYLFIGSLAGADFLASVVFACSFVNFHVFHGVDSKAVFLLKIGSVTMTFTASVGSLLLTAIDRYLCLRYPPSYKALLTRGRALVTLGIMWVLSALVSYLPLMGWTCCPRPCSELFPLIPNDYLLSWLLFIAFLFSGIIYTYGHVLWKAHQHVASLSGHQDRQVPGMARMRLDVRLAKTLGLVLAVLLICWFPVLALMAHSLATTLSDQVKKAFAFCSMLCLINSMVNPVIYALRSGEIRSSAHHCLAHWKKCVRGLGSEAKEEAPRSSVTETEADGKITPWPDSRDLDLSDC

For `CCCCCCC(C)(C)c1cc(O)c2c(c1)OC1C(O)CCCCC21` (single isomer, unassigned) [Compound C7S-30, 2-(,1-dimethylheptyl)-5,6,7,8,9,9a-hexahydro-4bH-10-oxa-benzo[α]azulen-4,9-diol], the EC50 (Human CB2 Receptor; [4]) was 1030 nM, the “Emax (%)” value (Human CB2 Receptor; [5]) was 66% and the EC50 (Human CB1 Receptor) was greater than 10 µM.
`CCCCCCC(C)(C)c1cc(OC(=O)C=CC(=O)O)c2c(c1)OC1CCCCCC21` (stereo not drawn) [Compound C7S-9, But-2-enedioic acid mono-[2-(1,1-dimethylheptyl)-5,6,7,8,9,9a-hexahydro-4bH-10-oxa-benzo[α]azulen-4-yl]ester] gave an inhibition in vivo at 2 mg/kg [1] of 26%, an EC50 (Human CB2 Receptor; [4]) of 712 nM and an Emax (Human CB2 Receptor; [5]) of 52%. The EC50 (Human CB1 Receptor) was greater than 10 µM.
In the case of `CCCCCCC(C)(C)c1cc(O)c2c(c1)OC1C(=NO)CCCC21` (centres unmarked) [Compound C6S-27, 7-(1,1-Dimethylheptyl)-9-hydroxy-2,3,4a,9b-tetrahydro-1H-dibenzofuran-4-one oxime], the EC50 (Human CB2 Receptor; [4]) is reported as 5560 nM, the Emax (Human CB2 Receptor; [5]) is reported as 64% and the EC50 (Human CB1 Receptor) is reported as greater than 10 µM.
In the case of `CCCCCCC(C)(C)c1cc(O)c2c(c1)OC1C2CCC(C)(C)C1O` (centres unmarked) [Compound C6S-8, 3-(1,1-dimethylheptyl)-7,7-dimethyl-5a,6,7,8,9,9a-hexahydro-dibenzofuran-1,6-diol], the inhibition in vivo at 2 mg/kg [1] is reported as 37% and the “adverse cannabimimetic activities in any of the parameters monitored” value [2] is reported as “None”.
For `CCCCCCC(C)(C)c1cc(O)c2c3c(oc2c1)CC(C)(C)CC3` [Compound C6M-10, 3-(1,1-Dimethylheptyl)-7,7-dimethyl-6,7,8,9-tetrahydro-dibenzofuran-1-ol], the EC50 (Human CB2 Receptor; [4]) was 25 nM, the Emax (Human CB2 Receptor; [5]) was 72% and the “agonistic activity toward cannabinoid receptors (in words)” value (Human CB2 Receptor) was “agonists specific toward the CB2 receptor”. It also gave an EC50 (Human CB1 Receptor) of 5.3 µM and an Emax (Human CB1 Receptor) of 132%.
For `CCCCCCC(C)(C)c1cc(OC(=O)C=CC(=O)O)c2c(c1)OC1CC(C)(C)CCC21` (centres unmarked) [Compound C6S-37, But-2-enedioic acid mono-[3-(1,1-dimethylheptyl)-7,7-dimethyl-5a,6,7,8,9,9a-hexahydro-dibenzofuran-1-yl]ester], the EC50 (Human CB2 Receptor; [4]) was 24 nM, the Emax (Human CB2 Receptor; [5]) was 44% and the “agonistic activity toward cannabinoid receptors (in words)” value (Human CB2 Receptor) was “agonists specific toward the CB2 receptor”. For the same molecule, the EC50 (Human CB1 Receptor) was 3.97 µM and the Emax (Human CB1 Receptor) was 102%.
For `CC1(C)CCC2c3c(O)cc(C4(CCc5ccccc5)SCCS4)cc3OC2C1` (centres unmarked) [Compound C6S-38, 7,7-dimethyl-3-(2-phenethyl-[1,3]dithiolan-2-yl)-5a,6,7,8,9,9a-hexahydro-dibenzofuran-1-ol], the EC50 (Human CB2 Receptor; [4]) was 184 nM, the Emax (Human CB2 Receptor; [5]) was 19% and the EC50 (Human CB1 Receptor) was greater than 10 µM.
`CCCCCCC(C)(C)c1cc(O)c2c(c1)OC1CCCCC(C(=O)O)C21` (stereo not drawn) [Compound C7S-31, 2-(1,1-Dimethylheptyl)-4-hydroxy-5,6,7,8,9,9a-hexahydro-4bH-10-oxa-benzo[α]azulen-5-carboxylic acid] was tested, and the EC50 (Human CB2 Receptor; [4]) was 641 nM, the Emax (Human CB2 Receptor; [5]) was 54% and the EC50 (Human CB1 Receptor) was greater than 10 µM.
`CCCCCCC(C)(C)c1cc(OC)cc2oc3c(c12)CC(C)(C)CC3=O` [Compound C6M-7, 9-(1,1-dimethylheptyl)-7-methoxy-2,2-dimethyl-2,3-dihydro-1H-dibenzofuran-4-one] was tested, and the “adverse cannabimimetic activities in any of the parameters monitored” value [2] was “None” and the inhibition in vivo at 10 mg/kg [3] was 26%.
`CCCCCCC(C)(C)c1cc(O)c2c(c1)OC(C)(C)[C@@H]1CC=C(CO)C[C@@H]21` [HU-210, reference compound] was tested, and the less squares crossed ([2]; 0.02 mg/kg i.v.) was “more than 50%”, the “number of squares crossed (spontaneous locomotor activity)” value ([2]; 0.02 mg/kg i.v., period of three minutes, vehicle 75.63±6.24) was 32.33±10.21 and the “drop of rectal temperature” value ([2]; 0.02 mg/kg i.v., statistically significant) was “about 2 °C”. For the same molecule, the “sensitivity to touch, average score” value ([2]; 0.02 mg/kg i.v., scale 0 not sensitive, 1 sensitive, 2 highly sensitive) was “above 1”, the rectal temperature ([2]; 0.02 mg/kg i.v., vehicle 38.88±0.11° C.) was 36.73±0.29 °C and the “time spent in the open arms of the elevated plus maze” value ([2]; 0.02 mg/kg i.v., vehicle about 15%) was roughly 41%.
With `CCCCCCC(C)(C)c1ccc([C@@H]2C[C@H](O)CC[C@H]2CCCO)c(O)c1` [CP55940, reference compound] the Emax (Human CB2 Receptor; [5]) was 30 to 60% and the Emax (Human CB1 Receptor) was 50 to 100%.
In the case of `CCCCCCC(C)(C)c1cc(OCC(=O)N(CC)CC)c2c(c1)OC1C(O)CCCCC21` (centres unmarked) [Compound C7S-17, 2-[2-(1,1-Dimethylheptyl)-9-hydroxy-5,6,7,8,9,9a-hexahydro-4bH-10-oxa-benzo[ ]azulen-4-yloxy]-N,N-diethyl-acetamide], the rectal temperature ([2]; 40 mg/kg i.v., 0.5 hr after injection) is reported as 37.84±0.62 °C, the “rectal temperature below controls” value ([2]; 40 mg/kg i.v., 0.5 hr after injection, not statistically significant) is reported as “about 0.9 °C” and the “rectal temperature (in words)” value ([2]; 40 mg/kg i.v., three hours after injection) is reported as “back to baseline”.
